Test results reported in US20100209406A1, “BACILLUS STRAINS AND METHODS FOR REDUCING E. COLI DISEASE AND ENHANCING PERFORMANCE” (priority 2004, published 2010).
Residues, ends and D or L forms follow the SMILES beside them.

Legend:
Experiment in all cases: Antibiotic sensitivity assay (antibiotic discs)
Assay type in all cases: cell-based, Bacillus subtilis
Bacillus strain 22C-P1 = details: antibiotic disc on TSA with 1.0% 22C-P1, 32° C. overnight
Protocol: (§1) After the plates were solidified, the antibiotic discs were placed onto the agar surface. The plates were incubated at 32° C. overnight. Inhibitory zones were measured in millimeters.

Bacillus strain 3A-P4 = details: antibiotic disc on TSA with 1.0% 3A-P4, 32° C. overnight
Protocol: as §1

Bacillus strain 15A-P4 = details: antibiotic disc on TSA with 1.0% 15A-P4, 32° C. overnight
Protocol: as §1

Compound: CC[C@H](C)[C@H](N)C1=N[C@H](C(=O)N[C@@H](CC(C)C)C(=O)N[C@H](CCC(=O)O)C(=O)N[C@H](C(=O)N[C@H]2CCCCNC(=O)[C@H](CC(N)=O)NC(=O)[C@@H](CC(=O)O)NC(=O)[C@H](Cc3cnc[nH]3)NC(=O)[C@@H](Cc3ccccc3)NC(=O)[C@H]([C@@H](C)CC)NC(=O)[C@@H](CCCN)NC2=O)[C@@H](C)CC)CS1 [Bacitracin] (HELM PEPTIDE1{[CC[C@H](C)[C@H](N)C1=N[C@H](C(=O)[*:2])CS1].L.[dE].I.K.[NCCC[C@@H](N[*:1])C(=O)[*:2]].I.[dF].H.[dD].N}$PEPTIDE1,PEPTIDE1,5:R3-11:R2$$$V2.0)
- Inhibitory Zones (Bacillus strain 22C-P1): 8 Millimeters
- Inhibitory Zones (Bacillus strain 3A-P4): 8 Millimeters
- Inhibitory Zones (Bacillus strain 15A-P4): 8 Millimeters

Compound: CCC[C@@H]1C[C@@H](C(=O)N[C@@H]([C@H]2O[C@H](SC)[C@H](O)[C@@H](O)[C@H]2O)[C@@H](C)O)N(C)C1 [Lincomycin]
- Inhibitory Zones (Bacillus strain 22C-P1): 8 Millimeters
- Inhibitory Zones (Bacillus strain 3A-P4): 8 Millimeters
- Inhibitory Zones (Bacillus strain 15A-P4): 9 Millimeters

Compound: CN(C)[C@@H]1C(=O)C(C(N)=O)=C(O)[C@@]2(O)C(=O)C3=C(O)c4c(O)cccc4[C@@](C)(O)[C@H]3[C@H](O)[C@@H]12 [Oxytetracycxyline]
- Inhibitory Zones (Bacillus strain 22C-P1): 24 Millimeters
- Inhibitory Zones (Bacillus strain 3A-P4): 24 Millimeters
- Inhibitory Zones (Bacillus strain 15A-P4): 14 Millimeters

Compound: CN(C)[C@@H]1C(O)=C(C(N)=O)C(=O)[C@@]2(O)C(O)=C3C(=O)c4c(O)cccc4[C@@](C)(O)[C@H]3C[C@@H]12 [Tetracycline]
- Inhibitory Zones (Bacillus strain 22C-P1): 21 Millimeters
- Inhibitory Zones (Bacillus strain 3A-P4): 26 Millimeters
- Inhibitory Zones (Bacillus strain 15A-P4): 14 Millimeters

Compound: Gentamycin
- Inhibitory Zones (Bacillus strain 22C-P1): 22 Millimeters
- Inhibitory Zones (Bacillus strain 3A-P4): 26 Millimeters
- Inhibitory Zones (Bacillus strain 15A-P4): 22 Millimeters

Compound: Neomycin
- Inhibitory Zones (Bacillus strain 22C-P1): 12 Millimeters
- Inhibitory Zones (Bacillus strain 3A-P4): 16 Millimeters
- Inhibitory Zones (Bacillus strain 15A-P4): 12 Millimeters

Compound: Penicillin
- Inhibitory Zones (Bacillus strain 22C-P1): 13 Millimeters
- Inhibitory Zones (Bacillus strain 3A-P4): 0 Millimeters
- Inhibitory Zones (Bacillus strain 15A-P4): 11 Millimeters
